From patent US20250195475A1, “CDK2 INHIBITOR AND PREPARATION METHOD AND USE THEREOF” (INVENTISBIO CO., LTD., priority 2022, published 2025) come the findings set out here.

pIC50: −log10 of the molar value.

This assay addresses CDK2/CyclinE1 (Homo sapiens (Human), UniProt P24941). The assay is described as follows: CDK2 kinase assay (TR-FRET). It is filed as biochemical. The following applies: CDK2/CyclinE1 0.5 nM, ATP 50 μM. The procedure:
The purpose of these assays is to evaluate the inhibition of small molecule inhibitors by using TR-FRET assay.
Compound Preparation. Dissslove the compounds into DMSO solution to make 10 mM DMSO stock. Serially dilute the stock solution from highest concentration down to lowest in DMSO to make the compound stock plate (100× stock plates). To make 5× compound intermediate plate, add 38 μL of assay buffer (50 mM HEPES, pH 7.5, 0.05 mg/mL BSA, 10 mM MgCl2, 1 mM EGTA, 0.01% Tween-20, 2 mM DTT) into each well of the V-bottom plate; then transfer 2 μL of the stock compound solution of each concentration from the compound stock plate (100× stock), and mix well.
Enzyme reaction. Transfer 2 μL compound from 5× intermediate plate into assay plate, then add 4 μL/well 2.5× Enzyme mix to assay plate, incubation for 10 min at room temperature. For positive control wells, add 4 μL/well assay buffer instead of Enzyme mix. Then add 4 μL/well 2.5× Substrate mix to assay plate, and incubation at 25° C. for 30 min at room temperature. After reaction, 10 μL 2× Detection mix (final 15 mM EDTA, 1× LANCE Detection Buffer, 0.5 nM Detection antibody) was added and incubated for 1 h prior to detection with excitation and emission at 320 and 665 nm (Tecan Spark® TR-FRET mode Tecan).
Inhibition rate (IR) of the tested compounds was determined by the following formula: IR (%)=(average High control−compound well)/(average High control−average Low control)*100%. Fit the compound IC50 from non-linear regression equation: Y=Bottom+(Top−Bottom)/(1+10^((Log IC50−X)*HillSlope)). X: Log of cpd concentration; Y: Inhibition rate (TR); Top and Bottom: Plateaus in same units as Y, log IC50: same log units as X; HillSlope: Slope factor or Hill slope.
In the case of `COCc1cc(C(=O)Nc2cc([C@H]3C[C@@H]4[C@H](C3)[C@H]4C(=O)NC(C)(C)C)[nH]n2)n(C)n1` [Compound 98], the negative logarithm of the IC50 (pIC50) was 7.73. In the case of `CC(C)NC(=O)O[C@H]1CC[C@@H](c2cc(NC(=O)C3CC3C#N)n[nH]2)C1` (single isomer, unassigned) [Compound 192] it was 8.70.

On to `CC1(NC(=O)O[C@@H]2CC[C@H](c3cc(NC(=O)C4CC4C#N)n[nH]3)C2)CC1` (single isomer, unassigned) [Compound 213], for which the pIC50 was 9.05. In the case of `CC(C)NC(=O)O[C@@H]1CC[C@H](c2cc(NC(=O)C3CN(S(C)(=O)=O)CC3C)n[nH]2)C1` (stereo partly drawn) [Compound 74] it was 8.66; in that of `CC(C)NC(=O)O[C@H]1CC[C@@H](c2cc(NC(=O)C3CC3C#N)n[nH]2)C1` (single isomer, unassigned) [Compound 193], 9.22; in that of `C#C[C@H]1C[C@@H]1C(=O)Nc1cc([C@H]2CC[C@@H](OC(=O)NC3(C)CC3)C2)[nH]n1` [Compound 141], 9.30. Take `Cn1nccc1C(=O)Nc1cc([C@H]2C[C@@H](OC(=O)NC(C)(C)C)CO2)[nH]n1` [Compound 101]: the pIC50 was 8.82. This pIC50 is 0.48 log units lower than that of the molecule before. In the case of `COC[C@H]1CCN(C(=O)Nc2cc([C@H]3CC[C@@H](OC(=O)NC(C)C)C3)[nH]n2)C1` [Compound 123] it was 6.58.

Turning to `CC(C)NC(=O)O[C@@H]1CC[C@H](c2cc(NC(=O)C3CC3C#N)n[nH]2)C1` (single isomer, unassigned) [Compound 118], the pIC50 is 8.74. The molecule `COCc1cc(C(=O)Nc2cc([C@@H]3C[C@H](OC(=O)NC(C)C)[C@@H]4C[C@@H]43)[nH]n2)n(C)n1` [Compound 9] showed a pIC50 of 6.00. The value for `CC1(NC(=O)O[C@H]2CC[C@@H](c3cc(NC(=O)C4CC4C#N)n[nH]3)C2)CC1` (single isomer, unassigned) [Compound 195] was 8.82. As to `COCC1CC(C(=O)Nc2cc([C@H]3CC[C@@H](OC(=O)NC(C)C)C3)[nH]n2)C1` (single isomer, unassigned) [Compound 149], the pIC50 is 7.87. In the case of `CC(C)NC(=O)O[C@@H]1CC[C@H](c2cc(NC(=O)C3CC3c3cnnn3C)n[nH]2)C1` (single isomer, unassigned) [Compound 154], the negative-log IC50 (pIC50) was 8.59. In turn, `Cc1c(C2CC2C(=O)Nc2cc([C@H]3CC[C@@H](OC(=O)NC4(C)CCC4)C3)[nH]n2)cnn1C` (stereo partly drawn) [Compound 217] had a pIC50 of 7.53. In the case of `CC(C)NC(=O)O[C@@H]1CC[C@H](c2cc(NC(=O)CN3CC(F)C3)n[nH]2)C1` [Compound 82] it was 6.94; in that of `CC(C)NC(=O)OC1COC(c2cc(NC(=O)c3ccccc3)n[nH]2)C1` (stereo not drawn) [Compound 67], 7.21; in that of `CC(C)NC(=O)O[C@H]1CO[C@@H](c2cc(NC(=O)c3cc(C(F)F)nn3C)n[nH]2)C1` [Compound 111], 8.39. `C#C[C@H]1C[C@@H]1C(=O)Nc1cc([C@H]2C[C@@H](OC(=O)N[C@@H](C)CC)CO2)[nH]n1` [Compound 155] gave a pIC50 of 8.35. The value for `CC(C)NC(=O)O[C@@H]1CC[C@H](c2cc(NC(=O)C3[C@H]4COC[C@@H]34)n[nH]2)C1` (stereo partly drawn) [Compound 115] was 7.26; that for `COCc1cc(C(=O)Nc2n[nH]c([C@H]3CC[C@@H](OC(=O)NC(C)C)C3)c2F)n(C)n1` [Compound 10] was 7.03; that for `C#CC1(NC(=O)O[C@@H]2CO[C@H](c3cc(NC(=O)c4ccnn4C)n[nH]3)C2)CCC1` [Compound 198] was 8.17. `CC(C)NC(=O)O[C@@H]1CO[C@H](c2cc(NC(=O)c3ccnn3CC(F)F)n[nH]2)C1` [Compound 93] showed a pIC50 of 8.28. The value for `C#C[C@H]1C[C@@H]1C(=O)Nc1cc([C@H]2C[C@@H](OC(=O)NC3(C)CC3)CO2)[nH]n1` [Compound 170] was 9.10; that for `CC(C)NC(=O)OC1COC(c2cc(NC(=O)Cc3ccc(C(F)(F)F)cc3)n[nH]2)C1` (stereo not drawn) [Compound 62] was 8.64. Molecule `CCC1(NC(=O)O[C@H]2CO[C@@H](c3cc(NC(=O)c4ccnn4C)n[nH]3)C2)CC1` [Compound 203] had a pIC50 of 9.05.

`Cn1nccc1C(=O)Nc1cc([C@@H]2C[C@H](OC(=O)NC3(C)CC3)CO2)[nH]n1` [Compound 95] had a pIC50 of 8.43. This pIC50 lies 0.62 log units lower than the previous one. Molecule `Cn1nccc1C(=O)Nc1cc([C@H]2CC[C@@H](OC(=O)NC3COC4(CCC4)C3)C2)[nH]n1` (single isomer, unassigned) [Compound 43] gave a pIC50 of 7.92.

The molecule `COC[C@@H]1CCN(C(=O)Nc2cc([C@H]3CC[C@@H](OC(=O)NC(C)C)C3)[nH]n2)C1` [Compound 120] had a negative-log IC50 (pIC50) of 6.94.

On to `CC(C)NC(=O)O[C@@H]1CC[C@H](c2cc(NC(=O)[C@@H]3CCN(S(=O)(=O)C4CC4)C3)n[nH]2)C1` [Compound 70], for which the pIC50 was 8.92. `COC[C@@H]1C[C@H]1C(=O)Nc1cc([C@H]2CC[C@@H](OC(=O)NC(C)C)C2)[nH]n1` [Compound 28] gave a negative-log IC50 (pIC50) of 6.96. Compared with the last molecule, the pIC50 is 1.96 log units lower. `CC(C)NC(=O)O[C@@H]1CC[C@H](c2cc(Nc3nccc(CCO)n3)n[nH]2)C1` [Compound 12] had a pIC50 of 8.00. Turning to `CC(C)NC(=O)O[C@@H]1CC[C@H](c2cc(NC(=O)C3CC3c3cnnn3C)n[nH]2)C1` (single isomer, unassigned) [Compound 153], the negative-log IC50 (pIC50) was 8.68. In the case of `CC(C)NC(=O)OC1COC(c2cc(NC(=O)Cc3ccccc3C(F)(F)F)n[nH]2)C1` (stereo not drawn) [Compound 64] it was 7.78; in that of `COC1CN(CC(=O)Nc2cc([C@H]3CC[C@@H](OC(=O)NC(C)C)C3)[nH]n2)C1` [Compound 72], 6.68; in that of `CC1(NC(=O)O[C@H]2CC[C@@H](c3cc(NC(=O)C4CC4C#N)n[nH]3)C2)CC1` (single isomer, unassigned) [Compound 196], 9.40.

The molecule `CC(C)NC(=O)O[C@@H]1CC[C@H](c2cc(Nc3nccc(CCO)n3)n[nH]2)C1` [Compound 29] had a negative logarithm of the IC50 (pIC50) of 7.16. Against the preceding molecule, the pIC50 is 2.24 log units lower. Turning to `C#C[C@H]1C[C@@H]1C(=O)Nc1cc([C@H]2C[C@@H](OC(=O)NC(C)(C)CC)CO2)[nH]n1` [Compound 168], the pIC50 is 9.22. The value for `CC(C)NC(=O)O[C@@H]1CC[C@H](c2cc(NC(=O)C3CCOCC3)n[nH]2)C1` [Compound 1] was 8.15; that for `Cc1c(C2CC2C(=O)Nc2cc([C@H]3CC[C@@H](OC(=O)NC(C)C)C3)[nH]n2)cnn1C` (single isomer, unassigned) [Compound 163] was 9.15; that for `C#C[C@H]1C[C@@H]1C(=O)Nc1cc([C@H]2C[C@@H](OC(=O)NC(C)C)CO2)[nH]n1` [Compound 164] was 8.82. In the case of `CC(C)NC(=O)O[C@@H]1CC[C@H](c2cc(Nc3nccc(-c4cnn(C)c4)n3)n[nH]2)C1` [Compound 11] it was 7.39; in that of `CCC1(NC(=O)O[C@@H]2CO[C@H](c3cc(NC(=O)c4ccnn4C)n[nH]3)C2)CCC1` [Compound 178], 8.85. `COC[C@H]1C[C@@H]1C(=O)Nc1cc([C@H]2CC[C@@H](OC(=O)NC(C)C(F)F)C2)[nH]n1` (single isomer, unassigned) [Compound 108] had a pIC50 of 8.30.

In the case of `Cc1c(C2CC2C(=O)Nc2cc([C@H]3CC[C@@H](OC(=O)NC4(C)CC4)C3)[nH]n2)cnn1C` (single isomer, unassigned) [Compound 206], the negative-log IC50 (pIC50) is 9.10.

In turn, `CC(C)NC(=O)O[C@@H]1CC[C@H](c2cc(NC(=O)C3CC34CCOC4)n[nH]2)C1` (stereo partly drawn) [Compound 175] showed a pIC50 of 6.76. Compared with the last molecule, the pIC50 is 2.34 log units lower. In the case of `COC(C)[C@H]1C[C@@H]1C(=O)Nc1cc([C@H]2CC[C@@H](OC(=O)NC3(C)CC3)C2)[nH]n1` (single isomer, unassigned) [Compound 221] it was 9.10; in that of `COCC1CC(C(=O)Nc2cc([C@H]3CC[C@@H](OC(=O)NC(C)C)C3)[nH]n2)C1` (single isomer, unassigned) [Compound 148], 8.26; in that of `COC[C@H]1C[C@@H]1C(=O)Nc1cc([C@H]2CC[C@@H](OC(=O)N[C@@H](C)C3CC3)C2)[nH]n1` [Compound 57], 8.24.

On to `C#C[C@H]1C[C@@H]1C(=O)Nc1cc([C@@H]2CC[C@H](OC(=O)NC3(C)CC3)C2)[nH]n1` [Compound 223], for which the negative-log IC50 (pIC50) was 9.30. In the case of `COCC1C[C@@H]1C(=O)Nc1cc([C@H]2CC[C@@H](OC(=O)NC(C)(C)C)C2)[nH]n1` (stereo partly drawn) [Compound 85] it was 8.70; in that of `Cn1nccc1C(=O)Nc1cc([C@H]2C[C@@H](OC(=O)NC3(C)CCC3)CO2)[nH]n1` [Compound 138], 9.00. In the case of `CC(C)NC(=O)O[C@@H]1CC[C@H](c2cc(NC(=O)C3CC3c3cnn(C)c3)n[nH]2)C1` (single isomer, unassigned) [Compound 210] it was 9.00; in that of `COC[C@H]1C[C@@H]1C(=O)Nc1cc([C@H]2CC[C@@H](OC(=O)NC34CC(C3)C4)C2)[nH]n1` [Compound 34], 9.15; in that of `CC(C)NC(=O)O[C@@H]1CO[C@H](c2cc(NC(=O)Cc3ccc4ncn(C)c4c3)n[nH]2)C1` [Compound 103], 7.97.
